Results: patent publication US11414424B2, “Cardiac sarcomere inhibitors” (Cytokinetics, Inc., priority 2018, dated 2022)

system: bovine cardiac myofibrils; experiment: Myofibril assay: PK/LDH-coupled steady-state ATPase activity of skinned bovine cardiac myofibrils; type: biochemical; conditions: Ca2+ activating to 75% of maximal rate
How it was run: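 Steady-state ATPase of detergent-skinned bovine left-ventricular myofibrils (1 mg/mL), PK/LDH-coupled NADH read at 340 nm, in PIPES/MgCl2 buffer pH 6.8 with 50 μM ATP, 0.6 mM EGTA and CaCl2 set for 50% or 75% activation. Inhibition of activity measured.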

Structure (SMILES) | CDMF75 IC15 [µM]
NC(=O)C12CC([C@H]3C(=O)N(c4ncc(Cl)cc4F)CC(=O)N3Cc3ccc(C(F)F)cc3)(C1)C2 [Compound 821, (S)-3-(4-(5-chloro-3-fluoropyridin-2-yl)-3,6-dioxo-1-(4-(difluoro-methyl)benzyl)piperazin-2-yl)bicyclo[1.1.1]pentane-1-carboxamide] | 2.1
NC(=O)C12CC([C@@H]3C(=O)N(c4ncc(Cl)cc4F)CC(=O)N3Cc3ccc(C(F)F)cc3)(C1)C2 [Compound 822, (R)-3-(4-(5-chioro-3-fluoropyridin-2-yl)-3,6-dioxo-1-(4-(difluoro-methyl)benzyl)piperazin-2-yl)bicyclo[1.1.1]pentane-1-carboxamide] | >39
Cc1ccc(CN2C(=O)CN(c3ncc(Cl)cc3F)C(=O)[C@@H]2C23CC(C(N)=O)(C2)C3)cc1 [Compound 823, (S)-3-(4-(5-chloro-3-fluoropyridin-2-yl)-1-(4-methylbenzyl)-3,6-dioxopiperazin-2-yl)bicyclo[1.1.1]pentane-1-carboxamide] | 2.3
Cc1ccc(CN2C(=O)CN(c3ncc(Cl)cc3F)C(=O)[C@H]2C23CC(C(N)=O)(C2)C3)cc1 [Compound 824, (R)-3-(4-(5-chloro-3-fluoropyridin-2-yl)-1-(4-methylbenzyl)-3,6-dioxopiperazin-2-yl)-bicyclo[1.1.1]pentane-1-carboxamide] | >39
CC(=O)N1CC2(C1)CC1(C2)C(=O)N(c2ncc(Cl)cc2F)CC(=O)N1Cc1ccc(C(F)(F)F)cc1 [Compound 825, 2-acetyl-10-(5-chloro-3-fluoropyridin-2-yl)-7-(4-(trifluoromethyl)benzyl)-2,7,10-triazadispiro-[3.1.56.14]dodecane-8,11-dione] | 0.7
CC(=O)N1CC2(C1)CC1(C2)C(=O)N(c2ncc(Cl)cc2F)CC(=O)N1Cc1ccc(C(F)F)cc1 [Compound 826, 2-acetyl-10-(5-chloro-3-fluoropyridin-2-yl)-7-(4-(difluoromethyl)benzyl)-2,7,10-triazadispiro-[3.1.56.14]dodecane-8,11-dione] | 1.26
CC(=O)N1CC2(C1)CC1(C2)C(=O)N(c2ncc(Cl)cc2F)CC(=O)N1Cc1ccc(F)cc1 [Compound 827, 2-acetyl-10-(5-chloro-3-fluoropyridin-2-yl)-7-(4-fluorobenzyl)-2,7,10-triazadispiro[3.1.56.14]-dodecane-8,11-dione] | 2.68
O=CN1CC2(C1)CC1(C2)C(=O)N(c2ncc(Cl)cc2F)CC(=O)N1Cc1ccc(F)cc1 [Compound 828, 10-(5-chloro-3-fluoro-pyridin-2-yl)-7-(4-fluoro-benzyl)-8,11-dioxo-2,7,10-triazadispiro[3.1.56.14]-dodecane-2-carbaldehyde] | 1.37
Cc1ccc(CN2C(=O)CN(c3ncc(Cl)cc3F)C(=O)C23CC2(CN(C=O)C2)C3)cc1 [Compound 830, 10-(5-chloro-3-fluoro-pyridin-2-yl)-7-(4-methyl-benzyl)-8,11-dioxo-2,7,10-triazadispiro[3.1.56.14]-dodecane-2-carbaldehyde] | 1.75
CC(=O)N1CC2(C1)CC1(C2)C(=O)N(c2ncc(Cl)cc2F)CC(=O)N1Cc1ccc(Cl)cc1 [Compound 831, 2-acetyl-10-(5-chloro-3-fluoropyridin-2-yl)-7-(4-chlorobenzyl)-2,7,10-triazadispiro[3.1.56.14]-dodecane-8,11-dione] | 0.53
NC(=O)C12CC(C3C(=O)N(c4ncc(Cl)cc4F)CC(=O)N3Cc3ccc(Cl)cc3)(C1)C2 (stereo not drawn) [Compound 835, 3-(4-(5-chloro-3-fluoropyridin-2-yl)-1-(4-chlorobenzyl)-3,6-dioxopiperazin-2-yl)bicyclo[1.1.1]pentane-1-carboxamide] | 1.64
NC(=O)C12CC([C@H]3C(=O)N(c4ncc(Cl)cc4F)CC(=O)N3Cc3ccc(Cl)cc3)(C1)C2 [Compound 836, (S)-3-(4-(5-chloro-3-fluoro-pyridin-2-yl)-1-(4-chloro-benzyl)-3,6-dioxo-piperazin-2-yl)bicyclo-[1.1.1]pentane-1-carboxamide] | 1.42
NC(=O)C12CC([C@@H]3C(=O)N(c4ncc(Cl)cc4F)CC(=O)N3Cc3ccc(Cl)cc3)(C1)C2 [Compound 837, (R)-3-(4-(5-chloro-3-fluoro-pyridin-2-yl)-1-(4-chloro-benzyl)-3,6-dioxo-piperazin-2-yl)bicyclo-[1.1.1]pentane-1-carboxamide] | >39
O=C1C(C23CC(O)(C2)C3)N(Cc2ccc(C(F)(F)F)cc2)C(=O)CN1c1ncc(Cl)cc1F (stereo not drawn) [Compound 838, 1-(5-chloro-3-fluoropyridin-2-yl)-3-(3-hydroxybicyclo[1.1.1]pentan-1-yl)-4-(4-(trifluoromethyl)benzyl)piperazine-2,5-dione] | 3.8
O=C1C(C23CC(O)(C2)C3)N(Cc2ccc(Cl)cc2)C(=O)CN1c1ncc(Cl)cc1F (stereo not drawn) [Compound 841, 1-(5-chloro-3-fluoropyridin-2-yl)-4-(4-chlorobenzyl)-3-(3-hydroxybicyclo[1.1.1]-pentan-1-yl)piperazine-2,5-dione] | 2.7
O=C1C(C23CC(O)(C2)C3)N(Cc2ccc(F)cc2)C(=O)CN1c1ncc(Cl)cc1F (stereo not drawn) [Compound 844, 1-(5-chloro-3-fluoropyridin-2-yl)-4-(4-fluorobenzyl)-3-(3-hydroxybicyclo[1.1.1]-pentan-1-yl)piperazine-2,5-dione] | 8.6
O=C1C(C23CC(O)(C2)C3)N(Cc2ccc(C(F)F)cc2)C(=O)CN1c1ncc(Cl)cc1F (stereo not drawn) [Compound 849, 1-(5-chloro-3-fluoropyridin-2-yl)-4-(4-(difluoromethyl)-benzyl)-3-(3-hydroxy-bicyclo[1.1.1]pentan-1-yl)piperazine-2,5-dione] | 5.7
Cc1ccc(CN2C(=O)CN(c3ncc(Cl)cc3F)C(=O)C2C23CC(O)(C2)C3)cc1 (stereo not drawn) [Compound 852, 1-(5-chloro-3-fluoropyridin-2-yl)-3-(3-hydroxybicyclo-[1.1.1]pentan-1-yl)-4-(4-methylbenzyl)piperazine-2,5-dione] | 6.5
Cc1cc(Cl)cnc1N1CC(=O)N(Cc2ccc(Cl)cc2)C2(CN(c3ccccn3)C2)C1=O [Compound 882, 8-(5-chloro-3-methyl-pyridin-2-yl)-5-(4-chloro-benzyl)-2-(pyridin-2-yl)-2,5,8-triazaspiro[3.5]-nonane-6,9-dione] | 0.3
Cc1cc(Cl)cnc1N1CC(=O)N(Cc2ccc(F)cc2)C2(CN(c3ccccn3)C2)C1=O [Compound 883, 8-(5-chloro-3-methyl-pyridin-2-yl)-5-(4-fluoro-benzyl)-2-(pyridin-2-yl)-2,5,8-triazaspiro[3.5]-nonane-6,9-dione] | 0.4
Cc1cc(Cl)cnc1N1CC(=O)N(Cc2ccc(Cl)cc2)C2(CN(c3ccc(F)cn3)C2)C1=O [Compound 884, 8-(5-chloro-3-methyl-pyridin-2-yl)-5-(4-chloro-benzyl)-2-(5-fluoropyridin-2-yl)-2,5,8-triazaspiro[3.5]-nonane-6,9-dione] | 0.5
Cc1cc(Cl)cnc1N1CC(=O)N(Cc2ccc(F)cc2)C2(CN(c3ccc(F)cn3)C2)C1=O [Compound 885, 8-(5-chloro-3-methyl-pyridin-2-yl)-5-(4-fluoro-benzyl)-2-(5-fluoropyridin-2-yl)-2,5,8-triazaspiro-[3.5]nonane-6,9-dione] | 0.5
Cc1cc(Cl)cnc1N1CC(=O)N(Cc2ccc(Cl)cc2)C2(CN(c3ccc(C#N)cn3)C2)C1=O [Compound 886, 6-(8-(5-chloro-3-methyl-pyridin-2-yl)-5-(4-chloro-benzyl)-6,9-dioxo-2,5,8-triazaspiro[3.5]nonan-2-yl)nicotinonitrile] | 0.7
Cc1cc(Cl)cnc1N1CC(=O)N(Cc2ccc(F)cc2)C2(CN(c3ccc(C#N)cn3)C2)C1=O [Compound 887, 6-(8-(5-chloro-3-methyl-pyridin-2-yl)-5-(4-fluoro-benzyl)-6,9-dioxo-2,5,8-triazaspiro[3.5]nonan-2-yl)nicotinonitrile] | 0.9
